In the NIST ThermoML archive (doi:10.1021/je700344f):
± gives the expanded uncertainty stated by the source.

Test: xn = mol fraction of the nth substance listed
Settings: 101 kPa, Liquid

CN(C)c1ccccc1 [N,N-dimethylaniline] + C1COCCO1
Settings	mass density [kg/m3]	viscosity [mPa·s]
283.15 K, x2 = 0.3099	990.33 ± 2.4	1.68 ± 0.12
283.15 K, x2 = 0.4246	998.33 ± 2.2	1.66 ± 0.12
283.15 K, x2 = 0.5302	1005.32 ± 2.3	1.637 ± 0.12
283.15 K, x2 = 0.6278	1013.42 ± 2.5	1.629 ± 0.12
283.15 K, x2 = 0.7182	1019.31 ± 2.7	1.607 ± 0.11
283.15 K, x2 = 0.7749	1025.23 ± 2.8	1.606 ± 0.11
283.15 K, x2 = 0.8551	1034.31 ± 3	1.602 ± 0.11
283.15 K, x2 = 0.9081	1040.92 ± 3.2	1.591 ± 0.11
283.15 K, x2 = 0.9538	1043.01 ± 3.3	1.588 ± 0.11
293.15 K, x2 = 0.3099	980.73 ± 2.7	1.424 ± 0.1
293.15 K, x2 = 0.4246	989.12 ± 2.5	1.428 ± 0.1
293.15 K, x2 = 0.5302	995.81 ± 2.3	1.37 ± 0.098
293.15 K, x2 = 0.6278	1003.54 ± 2.3	1.362 ± 0.097
293.15 K, x2 = 0.7182	1011.33 ± 2.5	1.345 ± 0.096
293.15 K, x2 = 0.7749	1016.79 ± 2.6	1.339 ± 0.096
293.15 K, x2 = 0.8551	1023.65 ± 2.8	1.326 ± 0.095
293.15 K, x2 = 0.9081	1031.25 ± 3	1.33 ± 0.095
293.15 K, x2 = 0.9538	1035.34 ± 3.1	1.327 ± 0.095
303.15 K, x2 = 0.3099	973.4 ± 2.8	1.199 ± 0.087
303.15 K, x2 = 0.4246	980.12 ± 2.7	1.182 ± 0.086
303.15 K, x2 = 0.5302	986.56 ± 2.5	1.166 ± 0.085
303.15 K, x2 = 0.6278	993.63 ± 2.3	1.157 ± 0.084
303.15 K, x2 = 0.7182	1001.04 ± 2.2	1.142 ± 0.083
303.15 K, x2 = 0.7749	1005.98 ± 2.3	1.136 ± 0.083
303.15 K, x2 = 0.8551	1014.07 ± 2.5	1.131 ± 0.083
303.15 K, x2 = 0.9081	1019.01 ± 2.7	1.124 ± 0.082
303.15 K, x2 = 0.9538	1024.82 ± 2.8	1.122 ± 0.082
313.15 K, x2 = 0.3099	963.88 ± 3.1	1.029 ± 0.076
313.15 K, x2 = 0.4246	970.47 ± 2.9	1.025 ± 0.076
313.15 K, x2 = 0.5302	977.93 ± 2.7	1.01 ± 0.075
313.15 K, x2 = 0.6278	984.4 ± 2.6	1.002 ± 0.074
313.15 K, x2 = 0.7182	991.21 ± 2.4	0.987 ± 0.073
313.15 K, x2 = 0.7749	995.85 ± 2.3	0.984 ± 0.073
313.15 K, x2 = 0.8551	1003.65 ± 2.3	0.976 ± 0.073
313.15 K, x2 = 0.9081	1008.93 ± 2.4	0.965 ± 0.072
313.15 K, x2 = 0.9538	1014.66 ± 2.5	0.968 ± 0.072
323.15 K, x2 = 0.3099	955.01 ± 3.3	0.912 ± 0.068
323.15 K, x2 = 0.4246	961.76 ± 3.1	0.901 ± 0.068
323.15 K, x2 = 0.5302	968.52 ± 3	0.886 ± 0.067
323.15 K, x2 = 0.6278	974.24 ± 2.8	0.879 ± 0.066
323.15 K, x2 = 0.7182	981.34 ± 2.6	0.872 ± 0.066
323.15 K, x2 = 0.7749	985.13 ± 2.5	0.861 ± 0.065
323.15 K, x2 = 0.8551	993.17 ± 2.4	0.857 ± 0.065
323.15 K, x2 = 0.9081	997.95 ± 2.2	0.848 ± 0.064
323.15 K, x2 = 0.9538	1002.4 ± 2.2	0.845 ± 0.064
333.15 K, x2 = 0.3099	945.84 ± 3.5	0.811 ± 0.062
333.15 K, x2 = 0.4246	953.15 ± 3.3	0.798 ± 0.061
333.15 K, x2 = 0.5302	958.78 ± 3.2	0.786 ± 0.06
333.15 K, x2 = 0.6278	964.37 ± 3.1	0.779 ± 0.06
333.15 K, x2 = 0.7182	971.52 ± 2.9	0.771 ± 0.059
333.15 K, x2 = 0.7749	974.75 ± 2.8	0.763 ± 0.059
333.15 K, x2 = 0.8551	983.43 ± 2.6	0.761 ± 0.059
333.15 K, x2 = 0.9081	986.57 ± 2.5	0.75 ± 0.058
333.15 K, x2 = 0.9538	991.84 ± 2.4	0.751 ± 0.058
343.15 K, x2 = 0.3099	936.89 ± 3.7	0.725 ± 0.056
343.15 K, x2 = 0.4246	944.04 ± 3.6	0.716 ± 0.056
343.15 K, x2 = 0.5302	948.37 ± 3.5	0.71 ± 0.055
343.15 K, x2 = 0.6278	954.22 ± 3.3	0.711 ± 0.055
343.15 K, x2 = 0.7182	962.15 ± 3.1	0.689 ± 0.054
343.15 K, x2 = 0.7749	964.44 ± 3.1	0.683 ± 0.054
343.15 K, x2 = 0.8551	971.97 ± 2.9	0.678 ± 0.053
343.15 K, x2 = 0.9081	977.83 ± 2.7	0.674 ± 0.053
343.15 K, x2 = 0.9538	980.14 ± 2.7	0.67 ± 0.053

CN(C)c1ccccc1 [N,N-dimethylaniline] + CCCCCCO
Settings	mass density [kg/m3]	viscosity [mPa·s]
283.15 K, x2 = 0.1009	958.16 ± 3.2	1.749 ± 0.12
283.15 K, x2 = 0.2017	944.54 ± 3.5	1.867 ± 0.13
283.15 K, x2 = 0.3022	928.83 ± 3.9	2.079 ± 0.14
283.15 K, x2 = 0.4025	915.52 ± 4.3	2.306 ± 0.16
283.15 K, x2 = 0.5026	904.21 ± 4.5	2.676 ± 0.18
283.15 K, x2 = 0.6025	890.94 ± 4.9	3.092 ± 0.21
283.15 K, x2 = 0.7022	876.26 ± 5.2	3.708 ± 0.25
283.15 K, x2 = 0.8016	861.23 ± 5.6	4.614 ± 0.3
283.15 K, x2 = 0.9009	848.23 ± 5.9	5.687 ± 0.36
293.15 K, x2 = 0.1009	950 ± 3.4	1.448 ± 0.1
293.15 K, x2 = 0.2017	936.43 ± 3.8	1.527 ± 0.11
293.15 K, x2 = 0.3022	920.62 ± 4.1	1.667 ± 0.12
293.15 K, x2 = 0.4025	909.23 ± 4.4	1.837 ± 0.13
293.15 K, x2 = 0.5026	896.74 ± 4.7	2.086 ± 0.14
293.15 K, x2 = 0.6025	882.6 ± 5.1	2.359 ± 0.16
293.15 K, x2 = 0.7022	868.6 ± 5.4	2.821 ± 0.19
293.15 K, x2 = 0.8016	852.26 ± 5.8	3.401 ± 0.23
293.15 K, x2 = 0.9009	841.25 ± 6.1	4.138 ± 0.27
303.15 K, x2 = 0.1009	942.24 ± 3.6	1.221 ± 0.088
303.15 K, x2 = 0.2017	928.31 ± 4	1.276 ± 0.092
303.15 K, x2 = 0.3022	912.67 ± 4.3	1.38 ± 0.099
303.15 K, x2 = 0.4025	901.18 ± 4.6	1.496 ± 0.11
303.15 K, x2 = 0.5026	888.09 ± 4.9	1.668 ± 0.12
303.15 K, x2 = 0.6025	875.63 ± 5.2	1.891 ± 0.13
303.15 K, x2 = 0.7022	860.74 ± 5.6	2.16 ± 0.15
303.15 K, x2 = 0.8016	846.02 ± 6	2.585 ± 0.17
303.15 K, x2 = 0.9009	832.65 ± 6.3	3.101 ± 0.21
313.15 K, x2 = 0.1009	933.77 ± 3.8	1.051 ± 0.077
313.15 K, x2 = 0.2017	920.41 ± 4.1	1.086 ± 0.08
313.15 K, x2 = 0.3022	904.59 ± 4.5	1.16 ± 0.084
313.15 K, x2 = 0.4025	892.85 ± 4.8	1.246 ± 0.09
313.15 K, x2 = 0.5026	879.8 ± 5.2	1.369 ± 0.098
313.15 K, x2 = 0.6025	867.83 ± 5.4	1.524 ± 0.11
313.15 K, x2 = 0.7022	852.77 ± 5.8	1.732 ± 0.12
313.15 K, x2 = 0.8016	839.15 ± 6.2	2.023 ± 0.14
313.15 K, x2 = 0.9009	824.98 ± 6.5	2.37 ± 0.16
323.15 K, x2 = 0.1009	925.31 ± 4	0.917 ± 0.069
323.15 K, x2 = 0.2017	912.27 ± 4.3	0.939 ± 0.07
323.15 K, x2 = 0.3022	896.34 ± 4.7	0.992 ± 0.074
323.15 K, x2 = 0.4025	885.58 ± 5	1.056 ± 0.078
323.15 K, x2 = 0.5026	872.2 ± 5.3	1.138 ± 0.083
323.15 K, x2 = 0.6025	859.03 ± 5.7	1.269 ± 0.091
323.15 K, x2 = 0.7022	843.94 ± 6	1.404 ± 0.1
323.15 K, x2 = 0.8016	831.15 ± 6.3	1.61 ± 0.11
323.15 K, x2 = 0.9009	818.33 ± 6.7	1.869 ± 0.13
333.15 K, x2 = 0.1009	916.93 ± 4.2	0.812 ± 0.062
333.15 K, x2 = 0.2017	905.29 ± 4.5	0.826 ± 0.063
333.15 K, x2 = 0.3022	887.96 ± 5	0.861 ± 0.065
333.15 K, x2 = 0.4025	876.93 ± 5.2	0.908 ± 0.068
333.15 K, x2 = 0.5026	864.04 ± 5.5	0.971 ± 0.072
333.15 K, x2 = 0.6025	849.87 ± 5.9	1.044 ± 0.077
333.15 K, x2 = 0.7022	837.74 ± 6.2	1.157 ± 0.084
333.15 K, x2 = 0.8016	823.68 ± 6.5	1.31 ± 0.094
333.15 K, x2 = 0.9009	810.66 ± 6.9	1.423 ± 0.1
343.15 K, x2 = 0.1009	909.05 ± 4.4	0.774 ± 0.06
343.15 K, x2 = 0.2017	895.76 ± 4.8	0.731 ± 0.057
343.15 K, x2 = 0.3022	880 ± 5.2	0.737 ± 0.057
343.15 K, x2 = 0.4025	867.83 ± 5.5	0.79 ± 0.061
343.15 K, x2 = 0.5026	854.24 ± 5.8	0.83 ± 0.063
343.15 K, x2 = 0.6025	842.51 ± 6.1	0.902 ± 0.068
343.15 K, x2 = 0.7022	829.06 ± 6.4	0.973 ± 0.072
343.15 K, x2 = 0.8016	813.99 ± 6.8	1.08 ± 0.079
343.15 K, x2 = 0.9009	803.44 ± 7	1.218 ± 0.088
